The test system of one assay is MRSA. The experiment in a line: MIC, microtiter broth dilution. Type of assay: cell-based, Staphylococcus aureus. As to conditions: LB broth, 18 h. The protocol: (§1) Antibacterial activities were performed by examining the minimal inhibitory concentrations (MICs), which was determined by a microtiter broth dilution method as previously described ([Cotsonas King and Wu, 2009]), with minor modifications. Briefly, 96-well plates (Corning) were inoculated with 100 μl of LB broth per well containing 7 × 10^5 CFU/mL bacteria, followed by adding 100 μl of LB broth containing two-fold serial dilutions of the test compounds. […] After 18 h of incubation, the MIC was determined to be the lowest concentration without visible bacterial growth. The results were the averages of at least three biological replicates.
On the technique in general: Dilution methods test growth across graded concentrations, often in twofold steps.

In assay [1] the test system is Listeria monocytogenes ATCC19117. The experiment in a line: MIC, microtiter broth dilution. Type of assay: cell-based. As to conditions: LB broth, 18 h. The protocol: as §1
Assay [2] concerns Staphylococcus aureus ATCC29213. Put plainly: MIC, microtiter broth dilution. Type of assay: cell-based. Conditions: LB broth, 18 h. The protocol:
as §1

The test system of assay [3] is Enterococcus faecalis ATCC29212. The experiment in a line: MIC, microtiter broth dilution. The format is cell-based. Conditions: LB broth, 18 h. The protocol: as §1
In assay [4] the test system is Escherichia coli ATCC25922. Put plainly: MIC, microtiter broth dilution. The format is cell-based. Conditions: LB broth, 18 h. The protocol:
as §1

The test system of the next assay is Escherichia coli BAS 849. The experiment in a line: microbe, parasite or virus in culture. Type of assay: cell-based. As to conditions: LB broth, 18 h, strain with deficient outer-membrane structure. The protocol: as §1
Assay [5] deals with Escherichia coli BL21 (DE3). Put plainly: microbe, parasite or virus in culture. Type of assay: cell-based. As to conditions: LB broth, 18 h. The protocol: as §1
In the next assay the test system is Escherichia coli DH5α. Put plainly: microbe, parasite or virus in culture. The format is cell-based. Conditions: LB broth, 18 h. The protocol:
as §1

Where [6] appears, read: Staphylococcus aureus, MRSA, read-out: MIC.
Where [7] appears, read: Listeria monocytogenes, ATCC19117, read-out: MIC.
Setting [8] is: Staphylococcus aureus, ATCC29213, read-out: MIC.
Setting [9] is: Enterococcus faecalis, ATCC29212, read-out: MIC.
Where [10] appears, read: Escherichia coli, read-out: MIC.

≈ marks a conversion by molar mass, not a printed value. Where two headings read alike, the source gives them in different places.

Consider `COc1cc(O)c2c(O)c3c(c4c2c1[C@]1(C4)C(C)=CCCC1(C)C)[C@H](O)[C@@]1(O)CC(=O)C(C(N)=O)=C(O)[C@@]1(O)C3=O` [VirA, viridicatumtoxins A], for which the MIC with MRSA is 1 µg/mL (≈ 1.77 µM); in assay [1], 2 µg/mL (≈ 3.54 µM); in assay [2], 1 µg/mL (≈ 1.77 µM); in assay [3] it was 2 µg/mL (≈ 3.54 µM); in assay [4], > 64 µg/mL; against Escherichia coli BAS 849, 8 µg/mL (≈ 14.1 µM). In addition, the MIC (in assay [5]; against Escherichia coli DH5α) was > 64 µg/mL throughout.

As to `CC1(C)S[C@@H]2[C@H](NC(=O)[C@H](N)c3ccccc3)C(=O)N2[C@H]1C(=O)O` [Amp, ampicillin], the MIC was 1 µg/mL (≈ 2.86 µM) in the assay with MRSA (setting [6]); 1 µg/mL (≈ 2.86 µM) in assay [1] (setting [7]); 1 µg/mL (≈ 2.86 µM) in assay [2] (setting [8]); 0.5 µg/mL (≈ 1.43 µM) in assay [3] (setting [9]); 1 µg/mL (≈ 2.86 µM) in assay [4] (Escherichia coli, ATCC25922, read-out: MIC); 0.5 µg/mL (≈ 1.43 µM) with Escherichia coli BAS 849 (Escherichia coli, BAS849, read-out: MIC). Besides, the MIC in assay [5] (setting [10]) was 1 µg/mL (≈ 2.86 µM); with Escherichia coli DH5α (setting [10]) it was 2 µg/mL (≈ 5.72 µM).

Regarding `CN(C)[C@@H]1C(O)=C(C(N)=O)C(=O)[C@@]2(O)C(O)=C3C(=O)c4c(O)cccc4[C@@](C)(O)[C@H]3C[C@@H]12` [Tet, Tetracycline], the MIC in the assay on MRSA (setting [6]) was 2 µg/mL (≈ 4.5 µM); in assay [1] (setting [7]), 2 µg/mL (≈ 4.5 µM); in assay [2] (setting [8]), 0.5 µg/mL (≈ 1.13 µM); in assay [3] (setting [9]), 8 µg/mL (≈ 18 µM).

For `COc1cc(O)c2c(O)c3c(c4c2c1C1(C4)C(C)=CCCC1(C)C)C1(O)OC12CC(=O)C(C(N)=O)=C(O)C2(O)C3=O` (stereo not shown) [VirB, viridicatumtoxins B], the MIC was 1 µg/mL (≈ 1.77 µM) with MRSA; 1 µg/mL (≈ 1.77 µM) in assay [1]; 1 µg/mL (≈ 1.77 µM) in assay [2]; 1 µg/mL (≈ 1.77 µM) in assay [3]; > 64 µg/mL in assay [4]; 8 µg/mL (≈ 14.2 µM) in the assay on Escherichia coli BAS 849. The MIC (in assay [5]; in the assay on Escherichia coli DH5α) was > 64 µg/mL throughout.

(Values after paper PMC9791066, “Investigations into the antibacterial effects and potential mechanism of gambogic acid and neogambogic acid” (Frontiers in Microbiology, 2022).)
